Conditions: Liquid; for viscosity: Concentric cylinders viscometry

CC(=O)[O-].CCCCn1cc[n+](C)c1 [1-butyl-3-methylimidazolium acetate]
101.33 kPa
Conditions	viscosity [mPa·s]
293.15 K	592.3
303.15 K	274.1
313.15 K	142.4
323.15 K	81.88
333.15 K	51.11
343.15 K	33.65
353.15 K	23.51
363.15 K	17.09
373.15 K	12.93

Conditions	mass density [kg/m3]
293.15 K, 101.33 kPa, Vibrating tube method	1053.8
303.15 K, 101.33 kPa, Vibrating tube method	1047.4
311.4 K, 10000 kPa, Bellows volumetry	1046.7
311.4 K, 20000 kPa, Bellows volumetry	1050.8
311.4 K, 30000 kPa, Bellows volumetry	1054.8
311.4 K, 40000 kPa, Bellows volumetry	1058.6
311.4 K, 50000 kPa, Bellows volumetry	1062.3
311.4 K, 60000 kPa, Bellows volumetry	1065.8
311.4 K, 70000 kPa, Bellows volumetry	1069.3
311.4 K, 80000 kPa, Bellows volumetry	1072.7
311.4 K, 90000 kPa, Bellows volumetry	1076
311.4 K, 100000 kPa, Bellows volumetry	1079
311.4 K, 110000 kPa, Bellows volumetry	1082.1
311.4 K, 120000 kPa, Bellows volumetry	1085.1
311.4 K, 130000 kPa, Bellows volumetry	1088.1
311.4 K, 140000 kPa, Bellows volumetry	1090.9
311.4 K, 150000 kPa, Bellows volumetry	1093.7
311.4 K, 160000 kPa, Bellows volumetry	1096.5
311.4 K, 170000 kPa, Bellows volumetry	1099.1
311.4 K, 180000 kPa, Bellows volumetry	1101.9
311.4 K, 190000 kPa, Bellows volumetry	1104.5
311.4 K, 200000 kPa, Bellows volumetry	1107.1
313.15 K, 101.33 kPa, Vibrating tube method	1041.4
323.15 K, 101.33 kPa, Vibrating tube method	1035.4
331.1 K, 10000 kPa, Bellows volumetry	1034.7
331.1 K, 20000 kPa, Bellows volumetry	1039.1
331.1 K, 30000 kPa, Bellows volumetry	1043.3
331.1 K, 40000 kPa, Bellows volumetry	1047.3
331.1 K, 50000 kPa, Bellows volumetry	1051.2
331.1 K, 60000 kPa, Bellows volumetry	1054.9
331.1 K, 70000 kPa, Bellows volumetry	1058.5
331.1 K, 80000 kPa, Bellows volumetry	1062.1
331.1 K, 90000 kPa, Bellows volumetry	1065.2
331.1 K, 100000 kPa, Bellows volumetry	1068.7
331.1 K, 110000 kPa, Bellows volumetry	1071.9
331.1 K, 120000 kPa, Bellows volumetry	1075
331.1 K, 130000 kPa, Bellows volumetry	1078.2
331.1 K, 140000 kPa, Bellows volumetry	1081.1
331.1 K, 150000 kPa, Bellows volumetry	1084
331.1 K, 160000 kPa, Bellows volumetry	1086.8
331.1 K, 170000 kPa, Bellows volumetry	1089.6
331.1 K, 180000 kPa, Bellows volumetry	1092.4
331.1 K, 190000 kPa, Bellows volumetry	1095.1
331.1 K, 200000 kPa, Bellows volumetry	1097.7
333.15 K, 101.33 kPa, Vibrating tube method	1029.5
343.15 K, 101.33 kPa, Vibrating tube method	1023.7
351.3 K, 10000 kPa, Bellows volumetry	1023.2
351.3 K, 20000 kPa, Bellows volumetry	1027.7
351.3 K, 30000 kPa, Bellows volumetry	1032.1
351.3 K, 40000 kPa, Bellows volumetry	1036.4
351.3 K, 50000 kPa, Bellows volumetry	1040.4
351.3 K, 60000 kPa, Bellows volumetry	1044.3
351.3 K, 70000 kPa, Bellows volumetry	1048
351.3 K, 80000 kPa, Bellows volumetry	1051.6
351.3 K, 90000 kPa, Bellows volumetry	1055
351.3 K, 100000 kPa, Bellows volumetry	1058.4
351.3 K, 110000 kPa, Bellows volumetry	1061.7
351.3 K, 120000 kPa, Bellows volumetry	1065
351.3 K, 130000 kPa, Bellows volumetry	1068.1
351.3 K, 140000 kPa, Bellows volumetry	1071.2
351.3 K, 150000 kPa, Bellows volumetry	1074.3
351.3 K, 160000 kPa, Bellows volumetry	1077.3
351.3 K, 170000 kPa, Bellows volumetry	1080.2
351.3 K, 180000 kPa, Bellows volumetry	1083
351.3 K, 190000 kPa, Bellows volumetry	1086
351.3 K, 200000 kPa, Bellows volumetry	1088.5
353.15 K, 101.33 kPa, Vibrating tube method	1017.9
363.15 K, 101.33 kPa, Vibrating tube method	1012
371.3 K, 10000 kPa, Bellows volumetry	1011.7
371.3 K, 20000 kPa, Bellows volumetry	1016.5
371.3 K, 30000 kPa, Bellows volumetry	1021.2
371.3 K, 40000 kPa, Bellows volumetry	1025.5
371.3 K, 50000 kPa, Bellows volumetry	1029.6
371.3 K, 60000 kPa, Bellows volumetry	1033.8
371.3 K, 70000 kPa, Bellows volumetry	1037.7
371.3 K, 80000 kPa, Bellows volumetry	1041.5
371.3 K, 90000 kPa, Bellows volumetry	1045
371.3 K, 100000 kPa, Bellows volumetry	1048.5
371.3 K, 110000 kPa, Bellows volumetry	1051.9
371.3 K, 120000 kPa, Bellows volumetry	1055.3
371.3 K, 130000 kPa, Bellows volumetry	1058.6
371.3 K, 140000 kPa, Bellows volumetry	1061.8
371.3 K, 150000 kPa, Bellows volumetry	1064.9
371.3 K, 160000 kPa, Bellows volumetry	1067.8
371.3 K, 170000 kPa, Bellows volumetry	1071
371.3 K, 180000 kPa, Bellows volumetry	1073.9
371.3 K, 190000 kPa, Bellows volumetry	1076.8
371.3 K, 200000 kPa, Bellows volumetry	1079.5
373.15 K, 101.33 kPa, Vibrating tube method	1006.1
